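Values below derive from 48-hour exposures of cells grown in 96-well plates, with endpoints linearly interpolated between the two concentrations bracketing the appropriate inhibition level. GI50 marks 50% less growth. TGI denotes the concentration required for complete inhibition of growth.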
Legend:
Test in all cases: NCI-60 cell line screen, 48 h
[1] = tested on: UO-31 renal
[2] = tested on: KM12 colon
[3] = tested on: SW-620 colon
[4] = tested on: A498 renal

Work on `C#CC[C@@H]1C[C@]2(C)[C@H]3CC[C@@H]4[C@H]5C(C(=C)C)CC[C@]5(C(=O)NCCCCCCCCN)CC[C@@]4(C)[C@]3(C)CC[C@H]2C(C)(C)[C@H]1OC(C)=O` (stereo partly drawn) yielded a GI50 [1] of 1460 nM, a TGI [1] of 2840 nM and a GI50 [2] of 1730 nM. The TGI [2] was 3220 nM, the GI50 [3] was 1710 nM and the TGI [3] was 3310 nM. The GI50 [4] was 2250 nM and the TGI [4] was 5350 nM.
